The record followed here is patent US12331026B2 (NiKang Therapeutics, Inc., priority 2022, dated 2025).

In this assay the target is T1, CDK2 (Homo sapiens, UniProt P24941).
T1 construct: endogenous in cells; host or cells: OVCAR3 cells
Put plainly: Phospho-RB measurement in OVCAR3 cells (HTRF phospho-RB S807/811). It counts as cell-based. The note with it: phosphorylation of RB protein at S807/811, HTRF, 24 h compound treatment, 0.3 to 10,000 nM, read-out: pRb (uM). In short, it runs like this: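 IC50 values come from four-parameter logistic fits of the DMSO-normalised 665/620 nm TR-FRET ratio for phospho-RB (S807/811). Antibody detection ran 4 h at room temperature.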
In general terms: TR-FRET usually uses a lanthanide donor and a delayed reading to cut background.

`O=S1(=O)CC2(CC(Nc3nccc(-c4sc(C56CC(CO)(C5)C6)nc4-c4cccc(NS(=O)(=O)c5c(F)cccc5F)c4F)n3)C2)C1` [Example 34, N-(3-(5-(2-((2,2-dioxido-2-thiaspiro[3.3]heptan-6-yl)amino)pyrimidin-4-yl)-2-(3-(hydroxymethyl)bicyclo[1.1.1]pentan-1-yl)thiazol-4-yl)-2-fluorophenyl)-2,6-difluorobenzenesulfonamide]: the IC50 was determined as 2.01 µM.

In the case of `C[C@H]1CNC[C@H](C)N1c1nc(-c2cccc(NS(=O)(=O)c3c(F)cccc3F)c2F)c(-c2ccnc(NC3CC4(C3)CS(=O)(=O)C4)n2)s1` [Example 62, N-(3-(2-((2S,6S)-2,6-dimethylpiperazin-1-yl)-5-(2-((2,2-dioxido-2-thiaspiro[3.3]heptan-6-yl)amino)pyrimidin-4-yl)thiazol-4-yl)-2-fluorophenyl)-2,6-difluorobenzenesulfonamide], the IC50 was 3.86 µM.

Regarding `O=S1(=O)CC2(CC(Nc3nccc(-c4sc(C56CC7CC(CC(C7)C5)C6)nc4-c4cccc(NS(=O)(=O)c5c(F)cccc5F)c4F)n3)C2)C1` [Example 6, N-(3-(2-((3r,5r,7r)-adamantan-1-yl)-5-(2-((2,2-dioxido-2-thiaspiro[3.3]heptan-6-yl)amino)pyrimidin-4-yl)thiazol-4-yl)-2-fluorophenyl)-2,6-difluorobenzenesulfonamide], the IC50 amounted to 0.08 µM.

Consider `O=S1(=O)CC2(CC(Nc3nccc(-c4sc(C56CC(C(F)(F)F)(C5)C6)nc4-c4cccc(NS(=O)(=O)c5c(Cl)cccc5C(F)(F)F)c4F)n3)C2)C1` [Example 91, 2-chloro-N-(3-(5-(2-((2,2-dioxido-2-thiaspiro[3.3]heptan-6-yl)amino)pyrimidin-4-yl)-2-(3-(trifluoromethyl)bicyclo-[1.1.1]pentan-1-yl)thiazol-4-yl)-2-fluorophenyl)-6-(trifluoromethyl)benzenesulfonamide], for which the IC50 worked out at 0.15 µM.

Consider `O=S1(=O)CC2(CC(Nc3nccc(-c4sc(C56CCC(CC5)C6)nc4-c4cccc(NS(=O)(=O)c5c(F)cccc5F)c4F)n3)C2)C1` [Example 9, N-(3-(2-(bicyclo[2.2.1]heptan-1-yl)-5-(2-((2,2-dioxido-2-thiaspiro[3.3]heptan-6-yl)amino)pyrimidin-4-yl)thiazol-4-yl)-2-fluorophenyl)-2,6-difluorobenzenesulfonamide], for which the IC50 was 0.1 µM.

Take `O=S1(=O)C[C@H]2C[C@H](Nc3nccc(-c4sc(C56CC(C5)C6)nc4-c4cccc(NS(=O)(=O)c5c(F)cccc5F)c4F)n3)C[C@H]2C1` [Example 152, N-(3-(2-(bicyclo[1.1.1]pentan-1-yl)-5-(2-(((3aR,5s,6aS)-2,2-dioxidohexahydro-1H-cyclopenta[c]thiophen-5-yl)amino)pyrimidin-4-yl)thiazol-4-yl)-2-fluorophenyl)-2,6-difluorobenzenesulfonamide]: the IC50 stood at 0.15 µM.

For the compound `O=S1(=O)CC2(CC(Nc3nccc(-c4sc(C5(C(F)F)CC5)nc4-c4cccc(NS(=O)(=O)c5c(F)cccc5F)c4F)n3)C2)C1` [Example 16, N-(3-(2-(1-(difluoromethyl)cyclopropyl)-5-(2-((2,2-dioxido-2-thiaspiro[3.3]heptan-6-yl)amino)pyrimidin-4-yl)thiazol-4-yl)-2-fluorophenyl)-2,6-difluorobenzenesulfonamide], the IC50 was determined as 0.13 µM.

As for `O=S1(=O)CC2(CC(Nc3nccc(-c4sc(N5C6CCC5CN(C5CCOC5)C6)nc4-c4cccc(NS(=O)(=O)c5c(F)cccc5F)c4F)n3)C2)C1` (stereo not shown) [Example 44, N-(3-(5-(2-((2,2-dioxido-2-thiaspiro[3.3]heptan-6-yl)amino)-pyrimidin-4-yl)-2-(3-(tetrahydrofuran-3-yl)-3,8-diazabicyclo-[3.2.1]octan-8-yl)thiazol-4-yl)-2-fluorophenyl)-2,6-difluoro-benzenesulfonamide], the IC50 was 0.66 µM.

In the case of `CC(C)(C)OC(=O)N1CCC(C)(c2nc(-c3cccc(NS(=O)(=O)c4c(F)cccc4F)c3F)c(-c3ccnc(NC4CC5(C4)CS(=O)(=O)C5)n3)s2)CC1` [Example 13, tert-butyl 4-(4-(3-((2,6-difluorophenyl)sulfonamido)-2-fluorophenyl)-5-(2-((2,2-dioxido-2-thiaspiro[3.3]heptan-6-yl)amino)pyrimidin-4-yl)thiazol-2-yl)-4-methylpiperidine-1-carboxylate], the IC50 was found to be 0.73 µM.

Take `O=S1(=O)CC2(CC(Nc3nccc(-c4sc(N5C6CCCC5CC6)nc4-c4cccc(NS(=O)(=O)c5c(F)cccc5F)c4F)n3)C2)C1` [Example 19, N-(3-(2-(8-azabicyclo[3.2.1]octan-8-yl)-5-(2-((2,2-dioxido-2-thiaspiro[3.3]heptan-6-yl)amino)pyrimidin-4-yl)thiazol-4-yl)-2-fluorophenyl)-2,6-difluorobenzenesulfonamide]: the IC50 was 0.19 µM.
